Values quoted from earlier work as cited in PMC12281572.
Values joined by “and” are separate entries in the source; they are usually repeats but may differ in a detail not shown here. Equal values may be shown once. Values belong to the molecule of their own block, whether it stands above or below them.

Test: FTIR, 4-fluorophenol as donor (the pK_BHX database, per the paper)
Conditions: CCl4; 25 C

Compound: COc1ccccc1C
- pK_BHX (log10 Kf of the 1:1 H-bond complex with 4-fluorophenol, by FTIR): -0.37 log units

Compound: C1CCNC1
- pK_BHX (log10 Kf of the 1:1 H-bond complex with 4-fluorophenol, by FTIR): 2.59 log units

Compound: Fc1cccnc1
- pK_BHX (log10 Kf of the 1:1 H-bond complex with 4-fluorophenol, by FTIR): 1.35 log units

Compound: C=CCCCCC
- pK_BHX (log10 Kf of the 1:1 H-bond complex with 4-fluorophenol, by FTIR): -0.67 log units

Compound: [O-][n+]1ccc(Cl)cc1
- pK_BHX (log10 Kf of the 1:1 H-bond complex with 4-fluorophenol, by FTIR): 2.44 log units

Compound: CC(=Nc1ccc(Cl)cc1)Nc1ccc(Cl)cc1
- pK_BHX (log10 Kf of the 1:1 H-bond complex with 4-fluorophenol, by FTIR): 1.07 log units

Compound: O=C(c1ccccc1)c1ccccc1
- pK_BHX (log10 Kf of the 1:1 H-bond complex with 4-fluorophenol, by FTIR): 1.07 log units

Compound: CC(=Nc1ccccc1)Nc1ccc(C)cc1
- pK_BHX (log10 Kf of the 1:1 H-bond complex with 4-fluorophenol, by FTIR): 1.85 log units

Compound: CN1C2CCCC1CC2
- pK_BHX (log10 Kf of the 1:1 H-bond complex with 4-fluorophenol, by FTIR): 2.39 log units

Compound: COc1ccccc1C(C)=O
- pK_BHX (log10 Kf of the 1:1 H-bond complex with 4-fluorophenol, by FTIR): 1.34 log units

Compound: C=CSCC
- pK_BHX (log10 Kf of the 1:1 H-bond complex with 4-fluorophenol, by FTIR): -0.13 log units

Compound: CCCCNC
- pK_BHX (log10 Kf of the 1:1 H-bond complex with 4-fluorophenol, by FTIR): 2.24 log units

Compound: CCc1ccccn1
- pK_BHX (log10 Kf of the 1:1 H-bond complex with 4-fluorophenol, by FTIR): 1.94 log units

Compound: CN=Cc1ccccc1
- pK_BHX (log10 Kf of the 1:1 H-bond complex with 4-fluorophenol, by FTIR): 1.49 log units

Compound: CC(C)O
- pK_BHX (log10 Kf of the 1:1 H-bond complex with 4-fluorophenol, by FTIR): 1.06 log units

Compound: C1COCO1
- pK_BHX (log10 Kf of the 1:1 H-bond complex with 4-fluorophenol, by FTIR): 0.45 log units

Compound: O=Cc1ccc(Cl)cc1
- pK_BHX (log10 Kf of the 1:1 H-bond complex with 4-fluorophenol, by FTIR): 0.63 log units

Compound: CCOC(=O)c1ccc(Br)cc1
- pK_BHX (log10 Kf of the 1:1 H-bond complex with 4-fluorophenol, by FTIR): 0.78 log units

Compound: COc1ccc(C#N)cc1
- pK_BHX (log10 Kf of the 1:1 H-bond complex with 4-fluorophenol, by FTIR): 0.97 log units

Compound: CC(C)(C)Br
- pK_BHX (log10 Kf of the 1:1 H-bond complex with 4-fluorophenol, by FTIR): -0.22 log units

Compound: c1ccc2nc3ccccc3cc2c1
- pK_BHX (log10 Kf of the 1:1 H-bond complex with 4-fluorophenol, by FTIR): 1.95 log units

Compound: Cc1cccc(CN)c1
- pK_BHX (log10 Kf of the 1:1 H-bond complex with 4-fluorophenol, by FTIR): 1.97 log units

Compound: CN(C)C=Nc1ccc(N(C)C)cc1
- pK_BHX (log10 Kf of the 1:1 H-bond complex with 4-fluorophenol, by FTIR): 2.32 log units

Compound: Clc1cccc(N=C(Nc2ccccc2)c2ccccc2)c1
- pK_BHX (log10 Kf of the 1:1 H-bond complex with 4-fluorophenol, by FTIR): 1.05 log units

Compound: O=c1c2ccccc2oc2ccccc12
- pK_BHX (log10 Kf of the 1:1 H-bond complex with 4-fluorophenol, by FTIR): 1.36 log units

Compound: CN1CCc2ccccc2C1
- pK_BHX (log10 Kf of the 1:1 H-bond complex with 4-fluorophenol, by FTIR): 1.8 log units

Compound: Cc1ccc(O)cc1
- pK_BHX (log10 Kf of the 1:1 H-bond complex with 4-fluorophenol, by FTIR): 0.03 log units

Compound: Brc1cncnc1
- pK_BHX (log10 Kf of the 1:1 H-bond complex with 4-fluorophenol, by FTIR): 0.59 log units

Compound: CC12CCC(CC1=O)C2(C)C (centres unmarked)
- pK_BHX (log10 Kf of the 1:1 H-bond complex with 4-fluorophenol, by FTIR): 1.31 log units

Compound: N#Cc1ccccc1C(F)(F)F
- pK_BHX (log10 Kf of the 1:1 H-bond complex with 4-fluorophenol, by FTIR): 0.57 log units

Compound: NCCN
- pK_BHX (log10 Kf of the 1:1 H-bond complex with 4-fluorophenol, by FTIR): 2.25 log units

Compound: CSCSC
- pK_BHX (log10 Kf of the 1:1 H-bond complex with 4-fluorophenol, by FTIR): -0.22 log units

Compound: Cc1cc(C)ncn1
- pK_BHX (log10 Kf of the 1:1 H-bond complex with 4-fluorophenol, by FTIR): 1.47 log units

Compound: CCCCCCCCO
- pK_BHX (log10 Kf of the 1:1 H-bond complex with 4-fluorophenol, by FTIR): 1.04 log units

Compound: CCN(C(C)C)C(C)C
- pK_BHX (log10 Kf of the 1:1 H-bond complex with 4-fluorophenol, by FTIR): 1.05 log units

Compound: COc1ccc(N=C(c2ccccc2)N(C)c2ccccc2)cc1
- pK_BHX (log10 Kf of the 1:1 H-bond complex with 4-fluorophenol, by FTIR): 1.53 log units

Compound: CCN(CC)C(=O)c1cccnc1
- pK_BHX (log10 Kf of the 1:1 H-bond complex with 4-fluorophenol, by FTIR): 1.98 log units and 1.63 log units

Compound: N#Cc1ccccc1
- pK_BHX (log10 Kf of the 1:1 H-bond complex with 4-fluorophenol, by FTIR): 0.8 log units

Compound: C#CCCCC
- pK_BHX (log10 Kf of the 1:1 H-bond complex with 4-fluorophenol, by FTIR): -0.22 log units

Compound: CN(C)Cc1cccc(F)c1
- pK_BHX (log10 Kf of the 1:1 H-bond complex with 4-fluorophenol, by FTIR): 1.27 log units

Compound: C1CNCCN1
- pK_BHX (log10 Kf of the 1:1 H-bond complex with 4-fluorophenol, by FTIR): 2.11 log units

Compound: CNC=O
- pK_BHX (log10 Kf of the 1:1 H-bond complex with 4-fluorophenol, by FTIR): 1.96 log units

Compound: Cc1ccc(CN=CN(C)C)cc1
- pK_BHX (log10 Kf of the 1:1 H-bond complex with 4-fluorophenol, by FTIR): 2.36 log units

Compound: O=S1OCCO1
- pK_BHX (log10 Kf of the 1:1 H-bond complex with 4-fluorophenol, by FTIR): 0.87 log units

Compound: COc1ccc(C(C)=O)cc1
- pK_BHX (log10 Kf of the 1:1 H-bond complex with 4-fluorophenol, by FTIR): 1.33 log units

Compound: Cc1nc2ccccc2o1
- pK_BHX (log10 Kf of the 1:1 H-bond complex with 4-fluorophenol, by FTIR): 1.48 log units

Compound: N
- pK_BHX (log10 Kf of the 1:1 H-bond complex with 4-fluorophenol, by FTIR): 1.74 log units

Compound: COc1cc(C#N)cc(OC)c1
- pK_BHX (log10 Kf of the 1:1 H-bond complex with 4-fluorophenol, by FTIR): 0.78 log units

Compound: c1ccc2cnccc2c1
- pK_BHX (log10 Kf of the 1:1 H-bond complex with 4-fluorophenol, by FTIR): 1.94 log units

Compound: COc1ccc(N=CN(C)C)cc1
- pK_BHX (log10 Kf of the 1:1 H-bond complex with 4-fluorophenol, by FTIR): 2.08 log units

Compound: O=c1cc(-c2ccccc2)oc2ccccc12
- pK_BHX (log10 Kf of the 1:1 H-bond complex with 4-fluorophenol, by FTIR): 1.99 log units

More lines, now with the values ahead:

- pK_BHX (log10 Kf of the 1:1 H-bond complex with 4-fluorophenol, by FTIR): 2.52 log units
Compound: CN(C)C=NC12CC3CC(CC(C3)C1)C2

- pK_BHX (log10 Kf of the 1:1 H-bond complex with 4-fluorophenol, by FTIR): 2.41 log units
Compound: CN(C)C=NC(C)(C)C

- pK_BHX (log10 Kf of the 1:1 H-bond complex with 4-fluorophenol, by FTIR): 1.49 log units
Compound: COC(=O)c1ccccc1OC

- pK_BHX (log10 Kf of the 1:1 H-bond complex with 4-fluorophenol, by FTIR): 1.74 log units
Compound: CN(C=O)c1ccccc1

- pK_BHX (log10 Kf of the 1:1 H-bond complex with 4-fluorophenol, by FTIR): 1.32 log units
Compound: CN1CCN(C)C1=S

- pK_BHX (log10 Kf of the 1:1 H-bond complex with 4-fluorophenol, by FTIR): 1.04 log units
Compound: CCOC(=O)C(C)(C)C

- pK_BHX (log10 Kf of the 1:1 H-bond complex with 4-fluorophenol, by FTIR): -0.18 log units
Compound: ClC12CC3CC(CC(C3)C1)C2

- pK_BHX (log10 Kf of the 1:1 H-bond complex with 4-fluorophenol, by FTIR): 2.48 log units
Compound: COc1ccccc1C(=O)N(C)C

- pK_BHX (log10 Kf of the 1:1 H-bond complex with 4-fluorophenol, by FTIR): 1.92 log units
Compound: C=CCN(C)C

- pK_BHX (log10 Kf of the 1:1 H-bond complex with 4-fluorophenol, by FTIR): 1.72 log units
Compound: NC1CC1

- pK_BHX (log10 Kf of the 1:1 H-bond complex with 4-fluorophenol, by FTIR): 1.17 log units
Compound: O=C(C12CC3CC(CC(C3)C1)C2)C12CC3CC(CC(C3)C1)C2

- pK_BHX (log10 Kf of the 1:1 H-bond complex with 4-fluorophenol, by FTIR): 0.63 log units
Compound: C1COCOC1

- pK_BHX (log10 Kf of the 1:1 H-bond complex with 4-fluorophenol, by FTIR): 2.09 log units
Compound: CN(C)C=NC#N

- pK_BHX (log10 Kf of the 1:1 H-bond complex with 4-fluorophenol, by FTIR): 1.05 log units
Compound: CC(=Nc1cccc(Cl)c1)N(C)c1cccc(Cl)c1

- pK_BHX (log10 Kf of the 1:1 H-bond complex with 4-fluorophenol, by FTIR): 1.19 log units
Compound: CC(=Nc1ccc(Br)cc1)N(C)c1ccc(Br)cc1

- pK_BHX (log10 Kf of the 1:1 H-bond complex with 4-fluorophenol, by FTIR): 2.19 log units
Compound: CN=C(c1ccc(Br)cc1)N(C)C

- pK_BHX (log10 Kf of the 1:1 H-bond complex with 4-fluorophenol, by FTIR): 2.92 log units
Compound: CN(C)C1=CC(=O)CC(C)(C)C1

- pK_BHX (log10 Kf of the 1:1 H-bond complex with 4-fluorophenol, by FTIR): 0.68 log units
Compound: C#CC(C)=O

- pK_BHX (log10 Kf of the 1:1 H-bond complex with 4-fluorophenol, by FTIR): 1.66 log units
Compound: Fc1cccc(C2=NCCC2)c1

- pK_BHX (log10 Kf of the 1:1 H-bond complex with 4-fluorophenol, by FTIR): 1.04 log units
Compound: CN(C)C(=O)C(F)(F)F

- pK_BHX (log10 Kf of the 1:1 H-bond complex with 4-fluorophenol, by FTIR): 1.05 log units
Compound: CCOC(=O)c1ccc(C)cc1

- pK_BHX (log10 Kf of the 1:1 H-bond complex with 4-fluorophenol, by FTIR): 2.24 log units
Compound: CC(C)C(=O)N(C1CCCCC1)C1CCCCC1

- pK_BHX (log10 Kf of the 1:1 H-bond complex with 4-fluorophenol, by FTIR): 0.88 log units
Compound: CCOC(=O)c1ccc(F)cc1

- pK_BHX (log10 Kf of the 1:1 H-bond complex with 4-fluorophenol, by FTIR): 2.48 log units
Compound: C=CCN=CN(C)C

- pK_BHX (log10 Kf of the 1:1 H-bond complex with 4-fluorophenol, by FTIR): 2.43 log units
Compound: CN(C)C=NN(C)C

- pK_BHX (log10 Kf of the 1:1 H-bond complex with 4-fluorophenol, by FTIR): 1.76 log units
Compound: CC(=O)c1ccc(N(C)C)cc1

- pK_BHX (log10 Kf of the 1:1 H-bond complex with 4-fluorophenol, by FTIR): 1.45 log units
Compound: CCOC(=O)c1ccc(N(C)C)cc1

- pK_BHX (log10 Kf of the 1:1 H-bond complex with 4-fluorophenol, by FTIR): 1.08 log units
Compound: COC(=O)c1ccc(OC)cc1

- pK_BHX (log10 Kf of the 1:1 H-bond complex with 4-fluorophenol, by FTIR): 2.59 log units
Compound: CCCN=CN(C)C

- pK_BHX (log10 Kf of the 1:1 H-bond complex with 4-fluorophenol, by FTIR): -0.1 log units
Compound: CC(C)S

- pK_BHX (log10 Kf of the 1:1 H-bond complex with 4-fluorophenol, by FTIR): 1.44 log units
Compound: C1C2CC3CC1CC(C2)C31OC12C1CC3CC(C1)CC2C3 (centres unmarked)

- pK_BHX (log10 Kf of the 1:1 H-bond complex with 4-fluorophenol, by FTIR): 0.78 log units
Compound: CC(=O)c1ccc(C(F)(F)F)cc1
